Data: patent publication US7612035B2, “Inhibition of mitogen-activated protein kinase (MAPK) pathway: a selective therapeutic strategy against melanoma” (Van Andel Research Institute, priority 2000, dated 2009)
“Also recorded” adds a separate entry of the source. Like-named read-outs stand apart in the source and are kept apart here. Marks after values point to notes of the source that are not given here.

Experiments:
[1] = tested on: MALME-3M; conditions: mouse, in vivo, ip, 90 mg/kg/day; cited from earlier work
[2] = tested on: melanoma xenografts; conditions: mouse, in vivo, ip; cited from earlier work
[3] = tested on: LOX-IMVI; conditions: mouse, in vivo, ip, cited from earlier work
[4] = tested on: UACC-257; conditions: mouse, in vivo, ip, 90 mg/kg/day; cited from earlier work
[5] = tested on: M14; conditions: mouse, in vivo, ip, 90 mg/kg/day; cited from earlier work
[6] = tested on: SK-MEL-2; conditions: mouse, in vivo, ip, 90 mg/kg/day; cited from earlier work
[7] = tested on: SK-MEL-5; conditions: mouse, in vivo, ip, 40 mg/kg/day; cited from earlier work
[8] = tested on: UACC-62; conditions: mouse, in vivo, ip, 90 mg/kg/day; cited from earlier work
[9] = tested on: normal human melanocytes (NHEM); assay: Cell cycle profile by flow cytometry; format: cell-based; conditions: 72 hours with PD98059 (and U0126) or 96 hours with LF
Protocol: (§1) Cell cycle profiles and DNA content were analyzed by flow cytometry, as previously described (Koo, H.-M. et al. Canc Res 59:6057-6062 (1999)). Total cells including floating cells were harvested, washed in cold PBS and fixed in cold 70% ethanol overnight. The fixed cells were rehydrated in PBS containing 1% fetal bovine serum, washed in PBS, incubated with DNase-free RNase at room temperature for 30 min, and then stained with 50 μg/ml propidium iodide overnight at 4° C. in the dark. The stained samples were analyzed in a FACSCalibur (Becton Dickinson Biosciences) for DNA content and cell cycle profiles.

[10] = tested on: SK-MEL-2; format: cell-based, human; conditions: 72 h, average of four replicates minus background (PA alone or DMSO), LF 0.1 μg/ml with PA, PD98059 20 μM every 24 h, U0126 10 μM single dose
[11] = tested on: SK-MEL-28; format: cell-based, human; conditions: 72 h, average of four replicates minus background (PA alone or DMSO), LF 0.1 μg/ml with PA, PD98059 20 μM every 24 h, U0126 10 μM single dose
[12] = tested on: SK-MEL-5; format: cell-based, human; conditions: 72 h, average of four replicates minus background (PA alone or DMSO), LF 0.1 μg/ml with PA, PD98059 20 μM every 24 h, U0126 10 μM single dose
[13] = tested on: LOX-IMVI; format: cell-based, human; conditions: 72 h, average of four replicates minus background (PA alone or DMSO), LF 0.1 μg/ml with PA, PD98059 20 μM every 24 h, U0126 10 μM single dose
[14] = tested on: UACC-62; format: cell-based, human; conditions: 72 h, average of four replicates minus background (PA alone or DMSO), LF 0.1 μg/ml with PA, PD98059 20 μM every 24 h, U0126 10 μM single dose
[15] = tested on: ERK1 and 2; assay: Active phospho-MAPK immunoblot in MALME-3M cells; format: cell-based, human
Protocol: (§2) Western blot analysis was performed as described previously (Koo et al., 1999, supra). The primary antibodies used were anti-active MAPK from Promega, and anti-ERK1 (K-23) and anti-ERK2 (C-14) from Santa Cruz Biotechnology.

[16] = tested on: MAPK (ERK); assay: Active phospho-MAPK immunoblot in normal melanocytes; format: cell-based, human; conditions: 72 hours with PD98059 (and U0126) or 96 hours with LF
Protocol: as §2

[17] = tested on: UACC-257; format: cell-based, human; conditions: 72 h, average of four replicates minus background (PA alone or DMSO), LF 0.1 μg/ml with PA, PD98059 20 μM every 24 h, U0126 10 μM single dose
[18] = tested on: M14-MEL; format: cell-based, human; conditions: for % Apoptosis: M14-MEL Melanoma Cells, treatment for 72 hours; for Apoptosis (%) Experiment I: M14-MEL, 72 h, average of four replicates minus background (PA alone or DMSO), LF 0.1 μg/ml with PA, PD98059 20 μM every 24 h, U0126 10 μM single dose
[19] = tested on: normal human melanocytes (NHEM); format: cell-based; conditions: for % Apoptosis: Normal Melanocytes, treatment for 72 hours; for apoptosis (in words): normal melanocytes
[20] = tested on: MALME-3M; format: cell-based, human; conditions: 72 h, average of four replicates minus background (PA alone or DMSO), LF 0.1 μg/ml with PA, PD98059 20 μM every 24 h, U0126 10 μM single dose
[21] = tested on: MALME-3M; assay: Cell cycle profile by flow cytometry; format: cell-based, human; conditions: within 24 hours of treatment
Protocol: as §1
In most cell types, activation of the MAPK pathway is required for progression through the restriction point in G1 phase of the cell cycle (reviewed in Roussel et al., supra).

[22] = tested on: MDA-MB-435 and MDA-N; assay: NCI-ADS growth inhibition, breast carcinoma lines; format: cell-based, human; conditions: NCI-ADS breast carcinoma lines MDA-MB-435 and MDA-N
[23] = tested on: MAPK (ERK1/2); assay: Western blot with phospho-specific anti-ERK antibody in M14-MEL cells; format: cell-based, human; conditions: M14-MEL melanoma cells
Protocol: as §2

[24] = 72 hours with PD98059 (and U0126) or 96 hours with LF

COc1cccc2c1[C@H](CO)N1[C@@H](C#N)[C@@H]3C[C@@H](C(=O)O)[C@H]([C@@H]1C2)N3C [DX-52-1]
Growth delay: %(T − C)/C [1]: 4% | Optimal % T/C [1]: 64 (72) % | Regressions Complete [1]: 0/6 | Regressions Partial [1]: 0/6 | day on which the optimal (minimum) T/C was attained [1]: 64 (72) | melanoma xenografts with statistically significant antitumor activity [2]: 5/7 | Growth delay: %(T − C)/C ([3]; 60 mg/kg/day): 389% | Optimal % T/C ([3]; 60 mg/kg/day): −100^b % | Regressions Complete ([3]; 60 mg/kg/day): 4/6 | Regressions Partial ([3]; 60 mg/kg/day): 016 | Growth delay: %(T − C)/C ([3]; 90 mg/kg/day): 181% | Optimal % T/C ([3]; 90 mg/kg/day): −54% | Regressions Complete ([3]; 90 mg/kg/day): 2/10 | Regressions Partial ([3]; 90 mg/kg/day): 3/10 | Growth delay: %(T − C)/C [4]: 35% | Optimal % T/C [4]: 12 (27) % | Regressions Complete [4]: 0/6 | Regressions Partial [4]: 0/6 | day on which the optimal (minimum) T/C was attained [4]: 12 (27) | Growth delay: %(T − C)/C [5]: 56% | Optimal % T/C [5]: 19 (26) % | Regressions Complete [5]: 0/6 | Regressions Partial [5]: 0/6 | day on which the optimal (minimum) T/C was attained [5]: 19 (26) | Growth delay: %(T − C)/C [6]: 118% | Optimal % T/C [6]: 10 (32) % | Regressions Complete [6]: 2/6 | Regressions Partial [6]: 0/6 | day on which the optimal (minimum) T/C was attained [6]: 10 (32) | Growth delay: %(T − C)/C [7]: 27% | Optimal % T/C [7]: 49 (33) % | Regressions Complete [7]: 0/6 | Regressions Partial [7]: 0/6 | day on which the optimal (minimum) T/C was attained [7]: 49 (33) | Growth delay: %(T − C)/C [8]: 185% | Optimal % T/C [8]: 18 (34) % | Regressions Complete [8]: 0/7 | Regressions Partial [8]: 0/7 | day on which the optimal (minimum) T/C was attained [8]: 18 (34)

COc1cccc(-c2cc(=O)c3ccccc3o2)c1N [PD98059]
cell cycle response [9]: induced G1 arrest | Apoptosis (%) Experiment I [10]: 23.4% | Apoptosis (%) Experiment I [11]: 2.5% | Apoptosis (%) Experiment I [12]: 9.1% | Apoptosis (%) Experiment I [13]: 3.6% | Apoptosis (%) Experiment I [14]: 30.5% | activation of ERK1 and 2 [15]: inhibited | MAPK (ERK) activation [16]: inhibited | Apoptosis (%) Experiment I [17]: 19.7% | % Apoptosis ([18]; 20 μM): 38.9% | Apoptosis (%) Experiment I [18]: 53.0% | % Apoptosis ([19]; 20 μM): 0% | apoptosis (in words) [19, 24]: no apoptosis was observed | apoptosis (in words) ([19]; PD98059 for 96 hours): apoptosis was not detected | Apoptosis (%) Experiment I [20]: 47.9% | cell cycle progression [21]: noticeably blocked in the G1 phase | sensitivity to growth inhibition [22]: as sensitive as melanoma cell lines

O=C(NOCC1CC1)c1ccc(F)c(F)c1Nc1ccc(I)cc1Cl [PD184352]
% Apoptosis ([18]; 1 μM): 24.5% | % Apoptosis ([18]; 5 μM): 37.3% | % Apoptosis ([18]; 10 μM): 48.8% | % Apoptosis ([18]; 20 μM): 71.0% | potency relative to PD98059 ([18]; apoptosis in M14-MEL, 72 hours): more potent, possibly by several fold | selectivity melanoma cells vs normal human melanocytes ([18]; apoptosis, 72 hours): selectively cytotoxic to human melanoma cells | % Apoptosis ([19]; 2 μM): 0.3% | activation of MAPK (ERK1/2) [23]: completely blocked

N#CC(=C(/N)Sc1ccccc1N)/C(C#N)=C(\N)Sc1ccccc1N [U0126]
cell cycle response [9]: induced G1 arrest | Apoptosis (%) Experiment I [10]: 35.4% | Apoptosis (%) Experiment I [11]: 1.1% | Apoptosis (%) Experiment I [12]: 1.9% | Apoptosis (%) Experiment I [13]: 2.3% | Apoptosis (%) Experiment I [14]: 8.3% | MAPK (ERK) activation [16]: inhibited | Apoptosis (%) Experiment I [17]: 4.7% | Apoptosis (%) Experiment I [18]: 36.0% | apoptosis (in words) [19, 24]: no apoptosis was observed; also recorded: did not induce apoptosis | Apoptosis (%) Experiment I [20]: 48.3%
